# Key:
# CDK13 = CDK13 (Homo sapiens, UniProt Q14004); test: Western blot degradation of CDK13 (Example 3); type: cell-based; parameters: degradation of CDK12/13 protein in leukemia cells KASUMI-1, MV4-11, and Jurkat; endogenous in cells; details: DC50 classes; cell line not given; read-out: CDK13 degradation Activity
# CDK12 = CDK12 (Homo sapiens, UniProt Q9NYV4); test: Western blot degradation of CDK12 (Example 3); type: cell-based; parameters: degradation of CDK12/13 protein in leukemia cells KASUMI-1, MV4-11, and Jurkat; endogenous in cells; details: DC50 classes; cell line not given; read-out: CDK12 degradation Activity
# Sequence of CDK12 (Q9NYV4 whole entry): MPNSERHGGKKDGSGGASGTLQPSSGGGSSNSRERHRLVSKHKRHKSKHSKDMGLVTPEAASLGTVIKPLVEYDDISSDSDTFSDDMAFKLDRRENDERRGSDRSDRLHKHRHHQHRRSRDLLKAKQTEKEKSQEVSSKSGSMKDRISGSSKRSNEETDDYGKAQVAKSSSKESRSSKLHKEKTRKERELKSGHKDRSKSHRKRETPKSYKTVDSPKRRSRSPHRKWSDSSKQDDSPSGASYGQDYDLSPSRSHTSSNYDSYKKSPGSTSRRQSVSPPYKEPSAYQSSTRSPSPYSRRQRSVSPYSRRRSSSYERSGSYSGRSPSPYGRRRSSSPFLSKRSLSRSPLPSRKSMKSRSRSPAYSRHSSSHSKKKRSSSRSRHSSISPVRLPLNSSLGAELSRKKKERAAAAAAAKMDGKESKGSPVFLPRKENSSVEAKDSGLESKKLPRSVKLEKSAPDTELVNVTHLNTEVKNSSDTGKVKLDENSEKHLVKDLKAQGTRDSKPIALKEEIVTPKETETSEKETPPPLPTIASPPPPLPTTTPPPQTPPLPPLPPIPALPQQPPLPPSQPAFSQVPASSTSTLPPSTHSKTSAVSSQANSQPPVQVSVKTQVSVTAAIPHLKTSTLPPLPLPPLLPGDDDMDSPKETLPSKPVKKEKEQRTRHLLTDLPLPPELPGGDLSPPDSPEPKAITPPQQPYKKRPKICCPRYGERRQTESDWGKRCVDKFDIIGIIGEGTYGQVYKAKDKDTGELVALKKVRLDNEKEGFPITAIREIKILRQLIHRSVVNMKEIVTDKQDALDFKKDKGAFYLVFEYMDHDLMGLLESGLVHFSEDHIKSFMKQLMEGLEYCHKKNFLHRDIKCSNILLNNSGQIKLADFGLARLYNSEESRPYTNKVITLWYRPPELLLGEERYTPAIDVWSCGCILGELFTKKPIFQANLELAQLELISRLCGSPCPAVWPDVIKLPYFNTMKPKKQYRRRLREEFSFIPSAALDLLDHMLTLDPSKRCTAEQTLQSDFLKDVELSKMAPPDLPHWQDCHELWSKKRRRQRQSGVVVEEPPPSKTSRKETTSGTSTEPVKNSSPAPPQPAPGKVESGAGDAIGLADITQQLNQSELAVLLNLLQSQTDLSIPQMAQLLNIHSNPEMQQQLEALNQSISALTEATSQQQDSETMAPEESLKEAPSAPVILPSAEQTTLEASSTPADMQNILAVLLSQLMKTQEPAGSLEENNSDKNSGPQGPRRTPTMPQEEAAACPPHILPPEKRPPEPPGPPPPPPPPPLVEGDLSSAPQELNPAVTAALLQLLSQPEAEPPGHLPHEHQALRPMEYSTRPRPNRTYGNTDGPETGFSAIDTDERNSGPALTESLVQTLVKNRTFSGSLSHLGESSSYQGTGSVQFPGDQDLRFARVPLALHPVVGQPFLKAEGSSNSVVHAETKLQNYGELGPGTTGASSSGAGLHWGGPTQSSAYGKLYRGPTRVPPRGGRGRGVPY
# Sequence of CDK12 (O75909 whole entry partner): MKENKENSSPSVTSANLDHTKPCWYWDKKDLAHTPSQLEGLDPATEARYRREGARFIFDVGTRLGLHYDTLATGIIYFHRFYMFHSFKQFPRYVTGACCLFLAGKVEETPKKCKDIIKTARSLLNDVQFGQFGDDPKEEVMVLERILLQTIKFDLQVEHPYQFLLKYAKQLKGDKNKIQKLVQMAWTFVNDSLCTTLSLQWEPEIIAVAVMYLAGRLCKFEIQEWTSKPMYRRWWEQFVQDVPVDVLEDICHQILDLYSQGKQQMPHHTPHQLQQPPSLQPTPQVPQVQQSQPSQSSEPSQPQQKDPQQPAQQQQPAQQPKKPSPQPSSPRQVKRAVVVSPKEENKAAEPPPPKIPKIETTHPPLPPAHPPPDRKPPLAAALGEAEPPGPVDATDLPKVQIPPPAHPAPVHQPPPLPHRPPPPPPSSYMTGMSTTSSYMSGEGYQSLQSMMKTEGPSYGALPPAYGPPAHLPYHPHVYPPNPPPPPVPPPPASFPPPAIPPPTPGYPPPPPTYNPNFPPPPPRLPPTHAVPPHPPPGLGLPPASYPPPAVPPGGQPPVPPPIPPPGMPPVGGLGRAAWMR
# Sequence of CDK13 (Q14004 whole entry): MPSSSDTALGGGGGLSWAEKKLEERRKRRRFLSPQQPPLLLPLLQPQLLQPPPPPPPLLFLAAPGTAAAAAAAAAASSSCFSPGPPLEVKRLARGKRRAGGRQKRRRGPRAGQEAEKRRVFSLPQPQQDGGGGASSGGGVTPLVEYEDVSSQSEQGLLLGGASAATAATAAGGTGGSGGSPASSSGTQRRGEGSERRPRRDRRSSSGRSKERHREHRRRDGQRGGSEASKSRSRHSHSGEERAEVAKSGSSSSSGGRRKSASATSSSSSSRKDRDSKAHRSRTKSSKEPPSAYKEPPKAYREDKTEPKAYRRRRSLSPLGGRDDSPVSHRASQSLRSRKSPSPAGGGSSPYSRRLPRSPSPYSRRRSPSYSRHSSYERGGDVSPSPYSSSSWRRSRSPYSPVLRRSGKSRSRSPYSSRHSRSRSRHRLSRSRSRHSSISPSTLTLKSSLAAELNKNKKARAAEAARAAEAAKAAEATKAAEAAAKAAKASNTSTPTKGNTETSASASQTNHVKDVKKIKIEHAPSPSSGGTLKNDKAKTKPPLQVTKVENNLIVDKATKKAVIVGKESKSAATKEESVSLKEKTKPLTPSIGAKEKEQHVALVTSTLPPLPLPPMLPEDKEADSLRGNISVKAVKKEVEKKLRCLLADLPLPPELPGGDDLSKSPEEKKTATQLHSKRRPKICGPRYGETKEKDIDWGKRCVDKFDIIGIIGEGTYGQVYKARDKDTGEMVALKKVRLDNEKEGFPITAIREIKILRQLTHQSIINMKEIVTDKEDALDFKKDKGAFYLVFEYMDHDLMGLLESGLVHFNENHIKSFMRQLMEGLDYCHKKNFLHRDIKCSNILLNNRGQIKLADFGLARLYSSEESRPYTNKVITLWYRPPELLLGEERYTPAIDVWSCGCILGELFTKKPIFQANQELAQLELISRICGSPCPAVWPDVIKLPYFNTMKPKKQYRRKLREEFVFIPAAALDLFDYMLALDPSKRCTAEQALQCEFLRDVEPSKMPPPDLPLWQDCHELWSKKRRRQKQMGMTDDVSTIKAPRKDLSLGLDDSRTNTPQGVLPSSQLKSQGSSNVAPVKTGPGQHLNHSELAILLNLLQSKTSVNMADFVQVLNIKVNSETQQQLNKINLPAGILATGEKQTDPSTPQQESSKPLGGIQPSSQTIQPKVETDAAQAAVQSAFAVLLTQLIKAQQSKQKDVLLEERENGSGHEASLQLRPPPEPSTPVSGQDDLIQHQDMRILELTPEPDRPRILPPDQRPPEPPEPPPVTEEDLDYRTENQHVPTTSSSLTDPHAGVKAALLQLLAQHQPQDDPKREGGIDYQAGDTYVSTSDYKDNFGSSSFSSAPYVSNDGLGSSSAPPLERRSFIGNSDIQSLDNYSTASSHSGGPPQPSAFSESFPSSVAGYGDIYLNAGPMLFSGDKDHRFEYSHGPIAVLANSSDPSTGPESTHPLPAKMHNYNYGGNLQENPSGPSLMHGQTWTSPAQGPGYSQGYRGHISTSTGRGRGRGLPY
# Sequence of CDK13 (O75909 whole entry partner): as the sequence (O75909 whole entry partner) above
SMILES,DC50 (CDK13) [µM],DC50 (CDK12) [µM]
"CC(=O)N(c1ccc(-c2cnn(C3CN(c4ccc5c(c4)C(=O)N(C4CCC(=O)NC4=O)C5=O)C3)c2)cc1)[C@H]1CC[C@H](Nc2ncc3ccccc3n2)CC1 (stereo partly drawn) [Formula 113, N-(4-(1-(1-(2-(2,6-dioxopiperidin-3-yl)-1,3-dioxoisoindolin-5-yl)azetidin-3-yl)-1H-pyrazol-4-yl)phenyl)-N-((1R,4R)-4-(quinazolin-2-ylamino)cyclohexyl)acetamide]",3 to 10,3 to 10
"CC(=O)N(c1ccc(-c2cnc(N3CCN(c4cc5c(cc4F)C(=O)N(C4CCC(=O)NC4=O)C5=O)CC3)nc2)cc1)[C@H]1CC[C@H](Nc2ncc3ccccc3n2)CC1 (stereo partly drawn) [Formula 114, N-(4-(2-(4-(2-(2,6-dioxopiperidin-3-yl)-6-fluoro-1,3-dioxoisoindolin-5-yl)piperazin-1-yl)pyrimidin-5-yl)phenyl)-N-((1R,4R)-4-(quinazolin-2-ylamino)cyclohexyl)acetamide]",1 to 3,1 to 3
"CC(=O)N(c1ccc(-c2cnn(CC3CN(c4ccc5c(c4)C(=O)N(C4CCC(=O)NC4=O)C5=O)C3)c2)cc1)[C@H]1CC[C@H](Nc2ncc3ccccc3n2)CC1 (stereo partly drawn) [Formula 115, N-(4-(1-((1-(2-(2,6-dioxopiperidin-3-yl)-1,3-dioxoisoindolin-5-yl)azetidin-3-yl)methyl)-1H-pyrazol-4-yl)phenyl)-N-((1R,4R)-4-(quinazolin-2-ylamino)cyclohexyl)acetamide]",1 to 3,1 to 3
"CC(=O)N(c1ccc(-c2cnn(C3CCN(c4ccc5c(c4)C(=O)N(C4CCC(=O)NC4=O)C5=O)C3)c2)cc1)[C@H]1CC[C@H](Nc2ncc3ccccc3n2)CC1 (stereo partly drawn) [Formula 116, N-(4-(1-(1-(2-(2,6-dioxopiperidin-3-yl)-1,3-dioxoisoindolin-5-yl)pyrrolidin-3-yl)-1H-pyrazol-4-yl)phenyl)-N-((1R,4R)-4-(quinazolin-2-ylamino)cyclohexyl)acetamide]",3 to 10,3 to 10
"CC(=O)N(c1ccc(-c2cnn(C3CCN(c4ccc5c(c4)C(=O)N(C4CCC(=O)NC4=O)C5=O)CC3)c2)cc1)[C@H]1CC[C@H](Nc2ncc3ccccc3n2)CC1 (stereo partly drawn) [Formula 117, N-(4-(1-(1-(2-(2,6-dioxopiperidin-3-yl)-1,3-dioxoisoindolin-5-yl)piperidin-4-yl)-1H-pyrazol-4-yl)phenyl)-N-((1R,4R)-4-(quinazolin-2-ylamino)cyclohexyl)acetamide]",0.5 to 1,1 to 3
"CC(=O)N(c1ccc(N2CCN(C(=O)/C=C/c3ccc4c(c3)C(=O)N(C3CCC(=O)NC3=O)C4=O)CC2)cc1)[C@H]1CC[C@H](Nc2ncc3ccccc3n2)CC1 (stereo partly drawn) [Formula 118, N-(4-(4-((E)-3-(2-(2,6-dioxopiperidin-3-yl)-1,3-dioxoisoindolin-5-yl)acryloyl)piperazin-1-yl)phenyl)-N-((1R,4R)-4-(quinazolin-2-ylamino)cyclohexyl)acetamide]",0.5 to 1,1 to 3
"CC(=O)N(c1ccc(N2CCC3(CC2)CCN(c2ccc4c(c2)C(=O)N(C2CCC(=O)NC2=O)C4=O)CC3)cc1)[C@H]1CC[C@H](Nc2ncc3ccccc3n2)CC1 (stereo partly drawn) [Formula 120, N-(4-(9-(2-(2,6-dioxopiperidin-3-yl)-1,3-dioxoisoindolin-5-yl)-3,9-diazaspiro[5.5]undecan-3-yl)phenyl)-N-((1R,4R)-4-(quinazolin-2-ylamino)cyclohexyl)acetamide]",3 to 10,3 to 10
"CC(=O)N(c1ccc(N2CCN(C3CCN(c4ccc5c(c4)C(=O)N(C4CCC(=O)NC4=O)C5=O)CC3)CC2)cc1)[C@H]1CC[C@H](Nc2ncc3ccccc3n2)CC1 (stereo partly drawn) [Formula 123, N-(4-(4-(1-(2-(2,6-dioxopiperidin-3-yl)-1,3-dioxoisoindolin-5-yl)piperidin-4-yl)piperazin-1-yl)phenyl)-N-((1R,4R)-4-(quinazolin-2-ylamino)cyclohexyl)acetamide]",0.5 to 1,0.1 to 0.5
"CC(=O)N(c1ccc(N2CCN(C3CN(c4ccc5c(c4)C(=O)N(C4CCC(=O)NC4=O)C5=O)C3)CC2)cc1)[C@H]1CC[C@H](Nc2ncc3ccccc3n2)CC1 (stereo partly drawn) [Formula 124, N-(4-(4-(1-(2-(2,6-dioxopiperidin-3-yl)-1,3-dioxoisoindolin-5-yl)azetidin-3-yl)piperazin-1-yl)phenyl)-N-((1R,4R)-4-(quinazolin-2-ylamino)cyclohexyl)acetamide]",1 to 3,1 to 3
"CC(=O)N(c1ccc(N2CCN(C3CCN(c4ccc5c(c4)C(=O)N(C4CCC(=O)NC4=O)C5=O)C3)CC2)cc1)[C@H]1CC[C@H](Nc2ncc3ccccc3n2)CC1 (stereo partly drawn) [Formula 125, N-(4-(4-(1-(2-(2,6-dioxopiperidin-3-yl)-1,3-dioxoisoindolin-5-yl)pyrrolidin-3-yl)piperazin-1-yl)phenyl)-N-((1R,4R)-4-(quinazolin-2-ylamino)cyclohexyl)acetamide]",3 to 10,1 to 3
"CC(=O)N(c1ccc(N2CCN(CC3CCN(c4ccc5c(c4)C(=O)N(C4CCC(=O)NC4=O)C5=O)C3)CC2)cc1)[C@H]1CC[C@H](Nc2ncc3ccccc3n2)CC1 (stereo partly drawn) [Formula 126, N-(4-(4-((1-(2-(2,6-dioxopiperidin-3-yl)-1,3-dioxoisoindolin-5-yl)pyrrolidin-3-yl)methyl)piperazin-1-yl)phenyl)-N-((1R,4R)-4-(quinazolin-2-ylamino)cyclohexyl)acetamide]",3 to 10,1 to 3
"CC(=O)N(c1ccc(N2CCN(CC3CN(c4ccc5c(c4)C(=O)N(C4CCC(=O)NC4=O)C5=O)C3)CC2)cc1)[C@H]1CC[C@H](Nc2ncc3ccccc3n2)CC1 (stereo partly drawn) [Formula 127, N-(4-(4-((1-(2-(2,6-dioxopiperidin-3-yl)-1,3-dioxoisoindolin-5-yl)azetidin-3-yl)methyl)piperazin-1-yl)phenyl)-N-((1R,4R)-4-(quinazolin-2-ylamino)cyclohexyl)acetamide]",0.5 to 1,0.5 to 1
"CC(=O)N(c1ccc(-c2cncc(C(=O)N[C@H]3CCC(=O)NC3=O)c2)cc1)[C@H]1CC[C@H](Nc2ncc3ccccc3n2)CC1 [Formula 128, N—((S)-2,6-dioxopiperidin-3-yl)-5-(4-(N-((1R,4S)-4-(quinazolin-2-ylamino)cyclohexyl)acetamido)phenyl)nicotinamide]",3 to 10,3 to 10
"CC(=O)N(c1ccc(-c2ccc(C(=O)N[C@H]3CCC(=O)NC3=O)nc2)cc1)[C@H]1CC[C@H](Nc2ncc3ccccc3n2)CC1 [Formula 129, N—((S)-2,6-dioxopiperidin-3-yl)-5-(4-(N-((1R,4S)-4-(quinazolin-2-ylamino)cyclohexyl)acetamido)phenyl)pyridinecarboxamide]",3 to 10,3 to 10
"CC(=O)N(c1ccc(-c2cnc(N3CCN(c4cc(NC5CCC(=O)NC5=O)ccc4F)CC3)nc2)cc1)[C@H]1CC[C@H](Nc2ncc3ccccc3n2)CC1 (stereo partly drawn) [Formula 130, N-(4-(2-(4-(5-((2,6-dioxopiperidin-3-yl)amino)-2-fluorophenyl)piperazin-1-yl)pyrimidin-5-yl)phenyl)-N-((1R,4R)-4-(quinazolin-2-ylamino)cyclohexyl)acetamide]",1 to 3,1 to 3
"CC(=O)N(c1ccc(-c2ccc(OCCOCC(=O)N[C@H](C(=O)N3C[C@H](O)C[C@H]3C(=O)N[C@@H](C)c3ccc(-c4scnc4C)cc3)C(C)(C)C)nc2)cc1)[C@H]1CC[C@H](Nc2ncc3ccccc3n2)CC1 [Formula 131, (2S,4R)-1-((S)-3,3-dimethyl-2-(2-(2-((5-(4-(N-((1R,4R)-4-(quinazolin-2-ylamino)cyclohexyl)acetamido)phenyl)pyridin-2-yl)oxy)ethoxy)acetamido)butanoyl)-4-hydroxy-N—((S)-1-(4-(4-methylthiazol-5-yl)phenyl)ethyl)pyrrolidine-2-carboxamide]",0.5 to 1,0.5 to 1
"CC(=O)N(c1ccc(-c2cnc(OCCOCC(=O)N[C@H](C(=O)N3C[C@H](O)C[C@H]3C(=O)N[C@@H](C)c3ccc(-c4scnc4C)cc3)C(C)(C)C)nc2)cc1)[C@H]1CC[C@H](Nc2ncc3ccccc3n2)CC1 [Formula 132, (2S,4R)-1-((S)-3,3-dimethyl-2-(2-(2-((5-(4-(N-((1R,4R)-4-(quinazolin-2-ylamino)cyclohexyl)acetamido)phenyl)pyrimidin-2-yl)oxy)ethoxy)acetamido)butanoyl)-4-hydroxy-N—((S)-1-(4-(4-methylthiazol-5-yl)phenyl)ethyl)pyrrolidine-2-carboxamide]",0.5 to 1,0.5 to 1
"CC(=O)N(c1ccc(-c2ccc(OCC3CCN(CC(=O)N[C@H](C(=O)N4C[C@H](O)C[C@H]4C(=O)N[C@@H](C)c4ccc(-c5scnc5C)cc4)C(C)(C)C)CC3)nc2)cc1)[C@H]1CC[C@H](Nc2ncc3ccccc3n2)CC1 [Formula 133, (2S,4R)-1-((S)-3,3-dimethyl-2-(2-(4-(((5-(4-(N-((1R,4R)-4-(quinazolin-2-ylamino)cyclohexyl)acetamido)phenyl)pyridin-2-yl)oxy)methyl)piperidin-1-yl)acetamido)butanoyl)-4-hydroxy-N—((S)-1-(4-(4-methylthiazol-5-yl)phenyl)ethyl)pyrrolidine-2-carboxamide]",0.1 to 0.5,0.5 to 1
"CC(=O)N(c1ccc(-c2cnc(OCC3CCN(CC(=O)N[C@H](C(=O)N4C[C@H](O)C[C@H]4C(=O)N[C@@H](C)c4ccc(-c5scnc5C)cc4)C(C)(C)C)CC3)nc2)cc1)[C@H]1CC[C@H](Nc2ncc3ccccc3n2)CC1 [Formula 134, (2S,4R)-1-((S)-3,3-dimethyl-2-(2-(4-(((5-(4-(N-((1R,4R)-4-(quinazolin-2-ylamino)cyclohexyl)acetamido)phenyl)pyrimidin-2-yl)oxy)methyl)piperidin-1-yl)acetamido)butanoyl)-4-hydroxy-N—((S)-1-(4-(4-methylthiazol-5-yl)phenyl)ethyl)pyrrolidine-2-carboxamide]",0.5 to 1,0.5 to 1
